Experimental findings from patent publication US12589156B2, “Benzimidazole and benzimidazolone based protac compounds for the targeted degradation of leucine rich repeat kinase 2 (LRRK2)” (Arvinas Operations, Inc., priority 2023, dated 2026) are described below.

The target of the test is T1, WT LRRK2 (Homo sapiens, UniProt Q5S007).
T1 construct: endogenous in cells; host or cells: HEK293 (endogenous LRRK2 gene knock-in tagged with HiBit; stably expressing CMV-driven firefly luciferase)
Kind of test: LRRK2 HiBit degradation assay (Nano-Glo Dual Luciferase) in HEK293 cells with HiBit-tagged endogenous LRRK2. Format: cell-based. As to conditions: for Dmax / WT LRRK2 **Dmax (%): maximal degradation. The text has this:
Biological Assays Exemplary Assay for Testing LRRK2 Degradation Driven by Exemplary Hetero-Bifunctional Compounds Designed to Target LRRK2
The assay measures the degradation of LRRK2 in cells where the C-terminus (3′) of the endogenous gene has been tagged with a HiBit sequence in HEK293 cells. The cells also express firefly lucisferase, expressed from a Cytomegalovirus promoter and introduced into the HiBit tagged cells and stably expressed. The Nano-Glo® Dual Luciferase Reporter Assay System (Promega™, Madison, WI) was utilized.
Day 1—Preparation of Compound and Assay Plates. Two sets of plates were prepared: a triplicate set for the HiBit assay in white 384-well plates and a triplicate set of plate in black 384-well plates for the Alamar Blue cell viability assay. Briefly, the growth media (DMEM+Glutamax-10% fetal bovine serum-1% Penicillin-Streptomicin) from two T128 flasks was aspirated from the flasks. Cells were washed with Dulbecco's Phosphate Buffered Saline (dPBS) and aspirated. Trypsin (3 mL per flask) was added and the flasks were incubated for 2-3 minutes.
Ten mL of OptiMEM—10% fetal bovine-1% penicillin-streptomycin (hereinafter, “OptiMEM media”) was added to the flask and the cells and transferred to a 50 ml conical tube. A cell count (25 ul of cell into Effendorf vial+25 ul of Trypan Blue Stain) was performed and the cell density adjusted to 15,000 cell/45 μl/well (3.33×10^5/mL) in OptiMEM media.
Forty-five microliters of the cell suspension (15,000 cells) was aliquoted to each well of the white 384-well plate. The plates incubated at room temperature for 10 minutes before being placed in the 37° C.+5% CO2 incubator overnight
Day 2—Compound Treatment. Exemplary compounds were prepared at a 1 mM starting concentration and 1:3 serial dilution for 11 points CRC prepared and stored in the freezer. The Master Compound Plate was thawed overnight at room temperature. DMSO (20 μL) was added into column 24 of the Master Compound Plate for negative control and 20 μL of 300 μM of Compound 4 in column 23 as positive control.
Intermediate Compound Plate with 4% DMSO in OptiMEM Media. DMSO was added to warm OptiMEM media to achieve a 4% DMSO solution (approximately 50 mL/plate). One-hundred microliters of the OptiMEM-4% DMSO was aliquoted to each well of 384-Well Deep Well Microplates.
The Master Compound Plate and the Intermediate Compound Plate were spun down.
One microliter of compound from the Master Compound Plate was transferred into the Intermediate plate (a 1:100 dilution). The diluted mixture was mixed and 5 μL transferred into the assay plate (a 1:10 dilution) for the final starting concentration of 1 μM. The Treated Assay plates were incubated for 24 hours at 37° C.+5% CO2. The Master Compound Plate was sealed and store at room temperature for a second run that was performed within a week.
One set of white assay plates was warmed to room temperature (45 minute).
The One Glo luciferase mixture was prepared. The media from white 384-well assay plates was aspirated. Twenty-five μL of the One Glo luciferase mixture was added to each well of the assay plates. The plates were incubated on the bench (room temperature) for 45 minutes, including 10 minutes of shaking at 700 rpm. The luminescence of each plate was read on a plate reader.
1:100 DLR substrate and 1:100 LgBiT Protein dilution were added to the Promega Stop and Glo buffer and mixed just before addition to assay plates. Twenty-five microliters of Stop and Glo mixture was added to each well. Assay plates incubated for at least 45 minutes, including 10 minutes of shaking at 700 rpm. The luminescence of each plate was read on a plate reader.
Analysis of LRRK2 HiBit Screening assays. As mentioned above, plates were run in triplicate and the assay repeated twice (total of 6 replicate for exemplary compounds). For each treatment, measurements were taken for firefly luciferase for cell number, cell viability (Alamar Blue), and Nanoluc for the LRRK2-HiBit quantification. […]

The mark [1] stands for this setting: HEK293, Table 2, HiBit-tagged LRRK2 in HEK293 cells, 24 hours treatment.
The mark [2] stands for this setting: Table 2, HiBit-tagged LRRK2 in HEK293 cells, 24 hours treatment, starting concentration 1 μM.
The mark [3] stands for this setting: HEK293, Table 3, comparison with direct comparators.
The mark [4] stands for this setting: Table 3, comparison with direct comparators, HiBit-tagged LRRK2 in HEK293 cells, 24 hours treatment.
[5] abbreviates: Table 2, HiBit-tagged LRRK2 in HEK293 cells, 24 hours treatment.

SMILES strings stand for the structures.

T1 sequence (Q5S007 whole entry): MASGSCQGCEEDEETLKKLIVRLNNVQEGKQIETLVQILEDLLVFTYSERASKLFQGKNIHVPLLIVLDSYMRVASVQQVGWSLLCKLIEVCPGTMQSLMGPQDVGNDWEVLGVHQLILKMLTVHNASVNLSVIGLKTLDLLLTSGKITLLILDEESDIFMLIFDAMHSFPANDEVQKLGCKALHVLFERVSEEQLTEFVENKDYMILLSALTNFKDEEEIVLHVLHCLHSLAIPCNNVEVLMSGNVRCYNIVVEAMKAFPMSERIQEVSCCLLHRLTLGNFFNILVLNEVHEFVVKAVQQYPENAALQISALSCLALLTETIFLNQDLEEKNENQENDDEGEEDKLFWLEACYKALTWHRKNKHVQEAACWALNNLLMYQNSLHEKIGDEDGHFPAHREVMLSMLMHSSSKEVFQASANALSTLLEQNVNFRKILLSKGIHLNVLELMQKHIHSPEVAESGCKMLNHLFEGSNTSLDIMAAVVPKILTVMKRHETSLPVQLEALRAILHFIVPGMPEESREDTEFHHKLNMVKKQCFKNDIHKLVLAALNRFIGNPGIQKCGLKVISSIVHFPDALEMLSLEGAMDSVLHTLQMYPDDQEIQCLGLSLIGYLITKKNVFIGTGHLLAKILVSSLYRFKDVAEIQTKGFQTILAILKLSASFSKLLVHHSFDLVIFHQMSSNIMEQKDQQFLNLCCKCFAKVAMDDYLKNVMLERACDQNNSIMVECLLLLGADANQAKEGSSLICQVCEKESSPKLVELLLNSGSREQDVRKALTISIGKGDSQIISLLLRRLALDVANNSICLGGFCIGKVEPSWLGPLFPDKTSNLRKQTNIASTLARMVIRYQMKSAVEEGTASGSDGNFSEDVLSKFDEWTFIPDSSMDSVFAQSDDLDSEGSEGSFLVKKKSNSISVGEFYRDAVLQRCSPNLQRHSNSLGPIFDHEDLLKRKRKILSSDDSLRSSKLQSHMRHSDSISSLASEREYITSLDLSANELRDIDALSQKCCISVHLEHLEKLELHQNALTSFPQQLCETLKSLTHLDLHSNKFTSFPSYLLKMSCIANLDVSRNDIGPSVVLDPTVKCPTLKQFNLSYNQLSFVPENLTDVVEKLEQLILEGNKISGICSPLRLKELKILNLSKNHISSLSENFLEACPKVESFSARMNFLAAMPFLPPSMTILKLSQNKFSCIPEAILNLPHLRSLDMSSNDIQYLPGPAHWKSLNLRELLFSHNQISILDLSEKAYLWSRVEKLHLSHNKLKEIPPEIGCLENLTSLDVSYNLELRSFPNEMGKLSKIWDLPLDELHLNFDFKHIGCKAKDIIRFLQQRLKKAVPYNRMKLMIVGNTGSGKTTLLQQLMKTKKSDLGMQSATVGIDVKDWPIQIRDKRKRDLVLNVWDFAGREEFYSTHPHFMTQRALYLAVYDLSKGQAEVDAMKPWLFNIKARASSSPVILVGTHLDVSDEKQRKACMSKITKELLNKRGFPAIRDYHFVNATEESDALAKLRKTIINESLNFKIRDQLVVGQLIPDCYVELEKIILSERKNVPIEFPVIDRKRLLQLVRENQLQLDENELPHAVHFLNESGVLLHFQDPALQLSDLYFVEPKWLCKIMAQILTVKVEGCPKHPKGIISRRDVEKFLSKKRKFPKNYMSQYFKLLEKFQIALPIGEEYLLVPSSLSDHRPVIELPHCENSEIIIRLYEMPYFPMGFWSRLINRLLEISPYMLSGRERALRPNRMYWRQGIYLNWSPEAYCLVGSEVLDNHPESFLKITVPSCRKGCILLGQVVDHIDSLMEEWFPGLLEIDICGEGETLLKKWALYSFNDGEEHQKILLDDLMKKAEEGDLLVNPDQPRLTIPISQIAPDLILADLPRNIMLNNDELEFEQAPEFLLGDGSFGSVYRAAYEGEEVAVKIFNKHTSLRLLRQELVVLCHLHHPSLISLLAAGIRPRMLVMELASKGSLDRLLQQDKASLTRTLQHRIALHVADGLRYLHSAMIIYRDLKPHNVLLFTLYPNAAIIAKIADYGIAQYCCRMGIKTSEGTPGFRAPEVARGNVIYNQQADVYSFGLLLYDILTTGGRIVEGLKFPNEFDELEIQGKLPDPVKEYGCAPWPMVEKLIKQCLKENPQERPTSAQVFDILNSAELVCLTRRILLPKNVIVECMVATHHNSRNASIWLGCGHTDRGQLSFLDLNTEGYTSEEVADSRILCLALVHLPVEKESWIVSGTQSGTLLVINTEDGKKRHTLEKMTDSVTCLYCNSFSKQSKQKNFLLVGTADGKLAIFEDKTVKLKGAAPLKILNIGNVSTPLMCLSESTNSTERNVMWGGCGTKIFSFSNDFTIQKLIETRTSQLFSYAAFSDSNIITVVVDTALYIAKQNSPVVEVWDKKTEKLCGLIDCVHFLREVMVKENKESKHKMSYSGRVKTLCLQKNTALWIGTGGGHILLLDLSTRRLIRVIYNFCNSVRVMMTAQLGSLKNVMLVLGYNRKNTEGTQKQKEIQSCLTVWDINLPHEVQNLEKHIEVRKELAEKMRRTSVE

As for `CC(C)Oc1ccc2[nH]nc(-c3cc(N4CCN(C[C@H]5CC[C@H](OC6CCN(c7ccc8c(c7)n(C(C)C)c(=O)n8C7CCC(=O)NC7=O)CC6)CC5)CC4)ncn3)c2c1` (single isomer, unassigned) [Compound 57, rel-3-[2-oxo-3-(propan-2-yl)-5-(4-{[(1r,4r)-4-[(4-{6-[5-(propan-2-yloxy)-1H-indazol-3-yl]pyrimidin-4-yl}piperazin-1-yl)methyl]cyclohexyl]oxy}piperidin-1-yl)-2,3-dihydro-1H-1,3-benzodiazol-1-yl]piperidine-2,6-dione], the Dmax under setting [1] stood at 51%. This compound displayed a DC50 under setting [2] of 0.64 nM.

For `Cn1c(=O)n(C2CCC(=O)NC2=O)c2ccc(N3CCC(CN4CCN(CC5CCN(c6cc(-c7n[nH]c8ccc(OC9(C)CC9)cc78)ncn6)CC5)C(C)(C)C4)CC3)cc21` (centres unmarked) [Compound 14, 3-{5-[4-({3,3-dimethyl-4-[(1-{6-[5-(1-methylcyclopropoxy)-1H-indazol-3-yl]pyrimidin-4-yl}piperidin-4-yl)methyl]piperazin-1-yl}methyl)piperidin-1-yl]-3-methyl-2-oxo-2,3-dihydro-1H-1,3-benzodiazol-1-yl}piperidine-2,6-dione], the Dmax reads like this: under setting [1], 58%; under setting [3], 58%. The DC50 amounted to 0.22 nM under setting [2] and 0.22 nM under setting [4].

The compound `Cc1nc2cc(N3CCC(CN4CCN(CC5CCN(c6cc(-c7n[nH]c8ccc(OC9(C)CC9)cc78)ncn6)CC5)C(C)(C)C4)CC3)ccc2n1C1CCC(=O)NC1=O` (centres unmarked) [Compound 38, 3-{5-[4-({3,3-dimethyl-4-[(1-{6-[5-(1-methylcyclopropoxy)-1H-indazol-3-yl]pyrimidin-4-yl}piperidin-4-yl)methyl]piperazin-1-yl}methyl)piperidin-1-yl]-2-methyl-1H-1,3-benzodiazol-1-yl}piperidine-2,6-dione] yielded a Dmax under setting [1] of 53% and a Dmax under setting [3] of 53%. The same compound gave a DC50 under setting [2] of 1.2 nM and a DC50 under setting [4] of 1.2 nM.

`CC(C)n1c(=O)n(C2CCC(=O)NC2=O)c2ccc(N3CCC(CN4CCN(CC5CCN(c6cc(-c7n[nH]c8cnc(OC9(C)CC9)cc78)ncn6)CC5)C(C)(C)C4)CC3)cc21` (centres unmarked) [Compound 51, 3-{5-[4-({3,3-dimethyl-4-[(1-{6-[5-(1-methylcyclopropoxy)-1H-pyrazolo[3,4-c]pyridin-3-yl]pyrimidin-4-yl}piperidin-4-yl)methyl]piperazin-1-yl}methyl)piperidin-1-yl]-2-oxo-3-(propan-2-yl)-2,3-dihydro-1H-1,3-benzodiazol-1-yl}piperidine-2,6-dione]: under setting [1], the Dmax was determined as 64%. This compound also returned a DC50 under setting [2] of 1.1 nM.

As to `CC(C)Oc1cc2c(-c3cc(N4CCC(OC5CCC(OC6CCN(c7ccc8c(c7)n(C)c(=O)n8C7CCC(=O)NC7=O)CC6)CC5)CC4)ncn3)n[nH]c2cn1` (centres unmarked) [Compound 28], the DC50 under setting [2] worked out at 17 nM. Besides, the “WT LRRK2 **Dmax (%)” value under setting [5] came out at 60%.

The compound `Cn1c(=O)n(C2CCC(=O)NC2=O)c2ccc(N3CCC(O[C@H]4CC[C@H](CN5CCN(c6cc(-c7n[nH]c8ccc([C@@]9(C#N)CC9%10CC%10)cc78)ncn6)CC5)CC4)CC3)cc21` (single isomer, unassigned) [Compound 65, (1R**)-1-{3-[6-(4-{[(1r*,4r*)-4-({1-[1-(2,6-dioxopiperidin-3-yl)-3-methyl-2-oxo-2,3-dihydro-1H-1,3-benzodiazol-5-yl]piperidin-4-yl}oxy)cyclohexyl]methyl}piperazin-1-yl)pyrimidin-4-yl]-1H-indazol-5-yl}spiro[2.2]pentane-1-carbonitrile] had a Dmax under setting [1] of 64%. In addition, half-maximal degradation under setting [2] (DC50) was put at 0.13 nM.

In the case of `COc1c(N2CCC(O[C@H]3CC[C@H](CN4CCN(c5cc(-c6n[nH]c7cnc(OC8(C)CC8)cc67)ncn5)CC4)CC3)CC2)ccc2c1CN(C1CCC(=O)NC1=O)C2=O` (some centres unmarked) [Comparative Example 1, reference compound], the Dmax under setting [3] is 52%. Under setting [4], the half-maximal degradation concentration (DC50) was determined as 5.6 nM.

Under setting [2], `Cn1c(=O)n(C2CCC(=O)NC2=O)c2ccc(N3CCC(O[C@H]4C[C@H](OC5CCN(c6cc(-c7n[nH]c8ccc(OC9(C)CC9)cc78)ncn6)CC5)C4)CC3)cc21` (single isomer, unassigned) [Compound 29, rel-3-(3-methyl-2-oxo-5-{4-[(1r,3r)-3-[(1-{6-[5-(1-methylcyclopropoxy)-1H-indazol-3-yl]pyrimidin-4-yl}piperidin-4-yl)oxy]cyclobutoxy]piperidin-1-yl}-2,3-dihydro-1H-1,3-benzodiazol-1-yl)piperidine-2,6-dione] yielded a 50% degradation concentration (DC50) of 0.16 nM. Moreover, the Dmax under setting [5] was 54%.

Consider `Cn1c(=O)n(C2CCC(=O)NC2=O)c2ccc(N3CCC(CN4CCN(CC5CCN(c6cc(-c7n[nH]c8cnc(OC9(C)CC9)cc78)ncn6)CC5)C(C)(C)C4)CC3)cc21` (centres unmarked) [Compound 48, 3-{5-[4-({3,3-dimethyl-4-[(1-{6-[5-(1-methylcyclopropoxy)-1H-pyrazolo[3,4-c]pyridin-3-yl]pyrimidin-4-yl}piperidin-4-yl)methyl]piperazin-1-yl}methyl)piperidin-1-yl]-3-methyl-2-oxo-2,3-dihydro-1H-1,3-benzodiazol-1-yl}piperidine-2,6-dione], for which the Dmax worked out at 56% under setting [1] and 56% under setting [3]. The DC50 is, setting by setting: under setting [2], 0.14 nM; under setting [4], 0.14 nM.

For the compound `Cn1c(=O)n(C2CCC(=O)NC2=O)c2ccc(N3CCN(C[C@H]4C[C@H](OC5CCN(c6cc(-c7n[nH]c8cnc(OC9(C)CC9)cc78)ncn6)CC5)C4)CC3)cc21` (single isomer, unassigned) [Compound 36, rel-3-[3-methyl-2-oxo-5-(4-{[(1r,3r)-3-[(1-{6-[5-(1-methylcyclopropoxy)-1H-pyrazolo[3,4-c]pyridin-3-yl]pyrimidin-4-yl}piperidin-4-yl)oxy]cyclobutyl]methyl}piperazin-1-yl)-2,3-dihydro-1H-1,3-benzodiazol-1-yl]piperidine-2,6-dione], the DC50 under setting [2] was found to be 0.079 nM. This compound also returned a Dmax under setting [5] of 60%.

Turning to `CC(C)n1c(=O)n(C2CCC(=O)NC2=O)c2ccc(N3CCC(OC4CCC(OC5CCN(c6cc(-c7n[nH]c8cnc(OC9(C)CC9)cc78)ncn6)CC5)CC4)CC3)cc21` (stereo not drawn) [Compound 26, rel-3-[2-oxo-3-(propan-2-yl)-5-(4-{[(1r,4r)-4-[(1-{6-[5-(1-methylcyclopropoxy)-1H-pyrazolo[3,4-c]pyridin-3-yl]pyrimidin-4-yl}piperidin-4-yl)oxy]cyclohexyl]oxy}piperidin-1-yl)-2,3-dihydro-1H-1,3-benzodiazol-1-yl]piperidine-2,6-dione], the DC50 under setting [2] stood at 1.1 nM. Moreover, under setting [5], the “WT LRRK2 **Dmax (%)” value was determined as 69%.

On to `Cn1c(=O)n(C2CCC(=O)NC2=O)c2cccc(N3CCC(O[C@H]4CC[C@H](CN5CCN(c6cc(-c7n[nH]c8ccc(OC9(C)CC9)cc78)ncn6)CC5)CC4)CC3)c21` (some centres unmarked) [Compound 9, 3-[3-methyl-2-oxo-4-(4-{[(1r,4r)-4-[(4-{6-[5-(1-methylcyclopropoxy)-1H-indazol-3-yl]pyrimidin-4-yl}piperazin-1-yl)methyl]cyclohexyl]oxy}piperidin-1-yl)-2,3-dihydro-1H-1,3-benzodiazol-1-yl]piperidine-2,6-dione], for which the Dmax worked out at 66% under setting [1] and 66% under setting [3]. The DC50 under setting [2] was 1.2 nM and the DC50 under setting [4] was 1.2 nM.
